Data from patent US20240116985A1, “STAPLED PEPTIDES AND METHODS THEREOF” (priority 2020, published 2024).

Experiment: CHI Log D procedure
Assay type: physicochemical
Settings: for chromatographic logD: pH 7.4, CHI Log D; for CHI Log D: pH 7.4

chromatographic logD | CHI Log D | Compound
2.7 | – | CC(=O)N1CCC[C@]12CC=CCCCC1(CCCC=CCCCCCC[C@@](C)(C(=O)N[C@@H](Cc3ccccc3)C(=O)N[C@@H](Cc3c[nH]c4ccccc34)C(=O)N[C@@H](CCC(N)=O)C(N)=O)NC(=O)[C@H](C(C)C)NC(=O)[C@H](Cc3ccccc3)NC(=O)[C@H](C)NC(=O)[C@H](C)NC(=O)[C@H](CCC(=O)O)NC(=O)[C@H](Cc3ccncc3)NC1=O)NC(=O)[C@H](C)NC(=O)[C@H](CC(=O)O)NC2=O (stereo partly drawn) [I-214, Ac-PL3-Asp-Ala-B5-4pyrA-Glu-Ala-Ala-Phe-Val-S8-Phe-Trp-Gln-NH2]
2.98 | – | CC(=O)N1CCC[C@]12CC=CCCCC1(CCCC=CCCCCCC[C@@](C)(C(=O)N[C@@H](Cc3ccccc3)C(=O)N[C@@H](Cc3c[nH]c4ccccc34)C(=O)N[C@@H](CCC(N)=O)C(N)=O)NC(=O)[C@H](C(C)C)NC(=O)[C@H](Cc3ccccc3)NC(=O)[C@H](C)NC(=O)[C@H](C)NC(=O)[C@H](CCC(=O)O)NC(=O)[C@H](Cc3ccccn3)NC1=O)NC(=O)[C@H](C)NC(=O)[C@H](CC(=O)O)NC2=O (stereo partly drawn) [I-230, Ac-PL3-Asp-Ala-B5-2pyrA-Glu-Ala-Ala-Phe-Val-S8-Phe-Trp-Gln-NH2]
3.03 | – | CC(=O)N1CCC[C@]12CC=CCCCC1(CCCC=CCCCCCC[C@@](C)(C(=O)N[C@@H](Cc3ccccc3)C(=O)N[C@@H](Cc3c[nH]c4ccccc34)C(=O)N[C@@H](CCC(N)=O)C(N)=O)NC(=O)[C@H](C(C)C)NC(=O)[C@H](Cc3ccccc3)NC(=O)[C@H](C)NC(=O)[C@H](C)NC(=O)[C@H](Cc3cccc4ccccc34)NC(=O)[C@H](CC(=O)O)NC1=O)NC(=O)[C@H](C)NC(=O)[C@H](CC(=O)O)NC2=O (stereo partly drawn) [I-234, Ac-PL3-Asp-Ala-B5-Asp-1NapA-Ala-Ala-Phe-Val-S8-Phe-Trp-Gln-NH2]
3.2 | – | CC(=O)N1CCC[C@]12CC=CCCCC1(CCCC=CCCCCCC[C@@](C)(C(=O)N[C@@H](Cc3ccccc3)C(=O)N[C@@H](Cc3c[nH]c4ccccc34)C(=O)N[C@@H](CCC(N)=O)C(N)=O)NC(=O)[C@H](C(C)C)NC(=O)[C@H](Cc3ccccc3)NC(=O)[C@H](C)NC(=O)[C@H](C)NC(=O)[C@H](Cc3ccc(-c4ccccc4)cc3)NC(=O)[C@H](CC(=O)O)NC1=O)NC(=O)[C@H](C)NC(=O)[C@H](CC(=O)O)NC2=O (stereo partly drawn) [I-235, Ac-PL3-Asp-Ala-B5-Asp-Bip-Ala-Ala-Phe-Val-S8-Phe-Trp-Gln-NH2]
2.89 | – | CC(=O)N1CCC[C@]12CC=CCCCC1(CCCC=CCCCCCC[C@@](C)(C(=O)N[C@@H](Cc3ccccc3)C(=O)N[C@@H](Cc3c[nH]c4ccccc34)C(=O)N[C@@H](CCC(N)=O)C(N)=O)NC(=O)[C@H](C(C)C)NC(=O)[C@H](Cc3ccccc3)NC(=O)[C@H](C)NC(=O)[C@H](C)NC(=O)[C@H](Cc3ccc(F)cc3)NC(=O)[C@H](CC(=O)O)NC1=O)NC(=O)[C@H](C)NC(=O)[C@H](CC(=O)O)NC2=O (stereo partly drawn) [I-258, Ac-PL3-Asp-Ala-B5-Asp-4FF-Ala-Ala-Phe-Val-S8-Phe-Trp-Gln-NH2]
– | 2.106 | CC(=O)N1CCC[C@]12CC=CCCCC1(CCCC=CCCCCCC[C@@](C)(C(=O)N[C@@H](Cc3ccc(F)c(F)c3)C(=O)N[C@@H](Cc3c[nH]c4ccccc34)C(=O)N[C@@H](CCC(N)=O)C(N)=O)NC(=O)[C@H](C(C)C)NC(=O)[C@H](Cc3ccccc3)NC(=O)[C@H](C)NC(=O)[C@H](C)NC(=O)[C@H](CC(=O)O)NC(=O)[C@H](CC(=O)O)NC1=O)NC(=O)[C@H](C)NC(=O)[C@H](CC(=O)O)NC2=O (stereo partly drawn) [I-262, Ac-PL3-Asp-Ala-B5-Asp-Asp-Ala-Ala-Phe-Val-S8-34FF-Trp-Gln-NH2]
– | 2.128 | CC(=O)N1CCC[C@]12CC=CCCCC1(CCCC=CCCCCCC[C@@](C)(C(=O)N[C@@H](Cc3ccc(F)c(F)c3)C(=O)N[C@@H](Cc3c[nH]c4ccccc34)C(=O)N[C@@H](CCC(N)=O)C(N)=O)NC(=O)[C@H](C(C)C)NC(=O)[C@H](Cc3ccccc3)NC(=O)[C@H](C)NC(=O)[C@H](C)NC(=O)[C@H](CC(=O)O)NC(=O)[C@H](CC(=O)O)NC1=O)NC(=O)[C@H](C)NC(=O)[C@H](CC(=O)O)NC2=O (stereo partly drawn) [I-263, Ac-PL3-Asp-Ala-B5-Asp-Asp-Ala-Ala-Phe-Val-S8-34FF-Trp-Gln-NH2]
– | 2.011 | CC(=O)N1CCC[C@]12CC=CCCCC1(CCCC=CCCCCCC[C@@](C)(C(=O)N[C@@H](Cc3ccccc3)C(=O)N[C@@H](Cc3c[nH]c4ccccc34)C(=O)N[C@@H](CCC(N)=O)C(N)=O)NC(=O)[C@H](C(C)C)NC(=O)[C@H](Cc3cccc(F)c3)NC(=O)[C@H](C)NC(=O)[C@H](C)NC(=O)[C@H](CC(=O)O)NC(=O)[C@H](CC(=O)O)NC1=O)NC(=O)[C@H](C)NC(=O)[C@H](CC(=O)O)NC2=O (stereo partly drawn) [I-264, Ac-PL3-Asp-Ala-B5-Asp-Asp-Ala-Ala-3FF-Val-S8-Phe-Trp-Gln-NH2]
1.81 | – | CC(=O)N1CCC[C@]12CC=CCCCC1(CCCC=CCCCCCC[C@@](C)(C(=O)N[C@@H](CCc3ccc(O)cc3)C(=O)N[C@@H](Cc3c[nH]c4ccccc34)C(=O)N[C@@H](CCC(N)=O)C(N)=O)NC(=O)[C@H](C(C)C)NC(=O)[C@H](Cc3ccccc3)NC(=O)[C@H](C)NC(=O)[C@H](C)NC(=O)[C@H](CC(=O)O)NC(=O)[C@H](CC(=O)O)NC1=O)NC(=O)[C@H](C)NC(=O)[C@H](CC(=O)O)NC2=O (stereo partly drawn) [I-269, Ac-PL3-Asp-Ala-B5-Asp-Asp-Ala-Ala-Phe-Val-S8-hTyr-Trp-Gln-NH2]
– | 1.991 | CC(=O)N1CCC[C@]12CC=CCCCC1(CCCC=CCCCCCC[C@@](C)(C(=O)N[C@@H](Cc3ccccc3)C(=O)N[C@@H](Cc3c[nH]c4ccccc34)C(=O)N[C@@H](CCC(N)=O)C(N)=O)NC(=O)[C@H](C(C)C)NC(=O)[C@H](Cc3ccccc3)NC(=O)[C@H](C)NC(=O)[C@H](C)NC(=O)[C@H](CC(=O)O)NC(=O)[C@H](CC(=O)O)NC1=O)NC(=O)[C@H](C)NC(=O)[C@H](CCC(=O)O)NC2=O (stereo partly drawn) [I-280, Ac-PL3-Glu-Ala-B5-Asp-Asp-Ala-Ala-Phe-Val-S8-Phe-Trp-Gln-NH2]
– | 2.2 | CC(=O)N1CCC[C@]12CC=CCCCC1(CCCC=CCCCCCC[C@@](C)(C(=O)N[C@@H](Cc3ccccc3)C(=O)N[C@@H](Cc3c[nH]c4ccccc34)C(=O)N[C@@H](CCC(N)=O)C(N)=O)NC(=O)[C@H](C(C)C)NC(=O)[C@H](Cc3ccccc3)NC(=O)[C@H](C)NC(=O)[C@H](C)NC(=O)[C@H](CC(=O)O)NC(=O)[C@H](CCC(=O)O)NC1=O)NC(=O)[C@H](C)NC(=O)[C@H](CC(=O)O)NC2=O (stereo partly drawn) [I-281, Ac-PL3-Asp-Ala-B5-Glu-Asp-Ala-Ala-Phe-Val-S8-Phe-Trp-Gln-NH2]
– | 2.224 | CC(=O)N1CCC[C@]12CC=CCCCC1(CCCC=CCCCCCC[C@@](C)(C(=O)N[C@@H](Cc3ccccc3)C(=O)N[C@@H](Cc3c[nH]c4ccccc34)C(=O)N[C@@H](CCC(N)=O)C(N)=O)NC(=O)[C@H](C(C)C)NC(=O)[C@H](Cc3ccccc3)NC(=O)[C@H](C)NC(=O)[C@H](C)NC(=O)[C@H](CC(=O)O)NC(=O)[C@H](CCC(=O)O)NC1=O)NC(=O)[C@H](C)NC(=O)[C@H](CC(=O)O)NC2=O (stereo partly drawn) [I-282, Ac-PL3-Asp-Ala-B5-Glu-Asp-Ala-Ala-Phe-Val-S8-Phe-Trp-Gln-NH2]
2.82 | – | CC(=O)N1CCC[C@]12CC=CCCCC1(CCCC=CCCCCCC[C@@](C)(C(=O)N[C@@H](Cc3ccccc3)C(=O)N[C@@H](Cc3csc4ccccc34)C(=O)N[C@@H](CCC(N)=O)C(N)=O)NC(=O)[C@H](C(C)C)NC(=O)[C@H](Cc3ccccc3)NC(=O)[C@H](C)NC(=O)[C@H](C)NC(=O)[C@H](Cc3ccc4ccccc4n3)NC(=O)[C@H](CC(=O)O)NC1=O)NC(=O)[C@H](C)NC(=O)[C@H](CC(=O)O)NC2=O (stereo partly drawn) [I-300, Ac-PL3-Asp-Ala-B5-Asp-Qui-Ala-Ala-Phe-Val-S8-Phe-BztA-Gln-NH2]
